This is an account of results in US11566007B2, “Ras inhibitors” (Revolution Medicines, Inc., priority 2019, dated 2023).

pIC50: −log10 of the molar value.

Sequence of NRAS Q61R (P01111 whole entry Q61R): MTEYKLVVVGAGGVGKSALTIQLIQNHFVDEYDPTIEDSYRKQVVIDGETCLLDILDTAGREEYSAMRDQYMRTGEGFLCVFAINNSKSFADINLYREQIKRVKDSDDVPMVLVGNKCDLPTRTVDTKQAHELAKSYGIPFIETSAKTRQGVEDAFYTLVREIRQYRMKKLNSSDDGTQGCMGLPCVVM
Sequence of NRAS Q61R (P62937 whole entry): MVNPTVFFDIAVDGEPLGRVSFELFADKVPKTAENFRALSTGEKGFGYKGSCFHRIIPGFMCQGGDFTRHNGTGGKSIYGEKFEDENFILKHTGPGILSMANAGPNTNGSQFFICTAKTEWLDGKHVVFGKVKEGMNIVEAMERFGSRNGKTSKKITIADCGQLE

This experiment addresses NRAS Q61R (Homo sapiens (Human), UniProt P01111+P62937, Q61R). Description: Ras-Raf (BRAF RBD) disruption / FRET / MOA assay, NRAS Q61R. The class given is biochemical. The following applies: NRAS Q61R; Ras-Raf disruption/FRET/MOA assay; read-out: IC50* NRAS Q61R FRET data. The method, boiled down:
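TR-FRET disruption of nucleotide-loaded Ras binding to BRAF RBD via compound-driven ternary complex with cyclophilin A. Compound as 10-point 3-fold series from 30 μM final, 3 h at 25° C, then anti-His Eu-W1024 (10 nM) and anti-GST allophycocyanin (50 nM) for 1.5 h. IC50 from decreased FRET ratio versus DMSO.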
For the molecule `CCn1c(-c2cccnc2[C@H](C)OC)c2c3cc(ccc31)-c1cccc(c1)C[C@H](NC(=O)[C@@H](CO[C@H]1CCN(C(=O)C#CC(C)(C)N(C)C)C1)C(C)C)C(=O)N1CCC[C@H](N1)C(=O)OCC(C)(C)C2` (atropisomer, axis not shown) [Example A585], the pIC50 (commonly the IC50 on a negative log10 scale, so that one unit is a factor of ten) was < 5.00.

Regarding `CCn1c(-c2cccnc2[C@H](C)OC)c2c3cc(ccc31)C1=CCCN(C1)C[C@H](NC(=O)[C@H](C(C)C)N(C)C(=O)C1(F)CCN(C(=O)C#CC(C)(C)N(C)C)CC1)C(=O)N1CCC[C@H](N1)C(=O)OCC(C)(C)C2` (atropisomer, axis not shown) [Example A591], the pIC50 was 6.00 to 7.00.

Turning to `CCn1c(-c2cccnc2[C@H](C)OC)c2c3cc(ccc31)-c1cccc(c1)C[C@H](NC(=O)[C@@H](COC1CN(C(=O)C#CC(C)(C)N(C)C(C)C)C1)C(C)C)C(=O)N1CCC[C@H](N1)C(=O)OCC(C)(C)C2` (atropisomer, axis not shown) [Example A599], the pIC50 was < 5.00.

For the molecule `CO[C@@H](C)c1ncccc1-c1c2c3cc(ccc3n1CC(F)(F)F)-c1cccc(c1)CN(NC(=O)[C@@H](COC1CN(C(=O)C#CC(C)(C)N(C)C)C1)C(C)C)C(=O)N1CCC[C@H](N1)C(=O)OCC(C)(C)C2` (atropisomer, axis not shown) [Example A601], the negative logarithm of the IC50 (pIC50) is 5.00 to 6.00.

On to `CO[C@@H](C)c1ncccc1-c1c2c3cc(ccc3n1CC(F)(F)F)-c1csc(n1)C[C@H](NC(=O)[C@H](C(C)C)N(C)C(=O)N1CCC3(CC1)CN(C(=O)/C=C/CF)C3)C(=O)N1CCC[C@H](N1)C(=O)OCC(C)(C)C2` (atropisomer, axis not shown) [Example A602], for which the pIC50 is 7.00 to 8.00.

In the case of `C=CC(=O)N1CCOC2(CCN(C(=O)N(C)[C@H](C(=O)N[C@H]3Cc4nc(n(C)n4)-c4ccc5c(c4)c(c(-c4cccnc4[C@H](C)OC)n5CC(F)(F)F)CC(C)(C)COC(=O)[C@@H]4CCCN(N4)C3=O)C(C)C)CC2)C1` (atropisomer, axis not shown) [Example A606], the pIC50 is 6.00 to 7.00.

For `C=CC(=O)N1CC2(C1)OCCN2C(=O)N(C)[C@H](C(=O)N[C@H]1Cc2nc(cs2)-c2ccc3c(c2)c(c(-c2cccnc2[C@H](C)OC)n3CC)CC(C)(C)COC(=O)[C@@H]2CCCN(N2)C1=O)C(C)C` (atropisomer, axis not shown) [Example A620], the negative logarithm of the IC50 (pIC50) was 6.00 to 7.00.

`CCn1c(-c2cccnc2[C@H](C)OC)c2c3cc(ccc31)-c1cccc(n1)C[C@H](NC(=O)[C@H](C(C)C)N(C)C(=O)N1CCC13CN(C(=O)C#CC(C)(C)N(C)C)C3)C(=O)N1CCC[C@H](N1)C(=O)OCC(C)(C)C2` (atropisomer, axis not shown) [Example A623]: the pIC50 is 5.00 to 6.00.

On to `CCn1c(-c2cccnc2[C@H](C)OC)c2c3cc(ccc31)-c1csc(n1)C[C@H](NC(=O)C[C@H](C)OC1CN(C(=O)C#CC(C)(C)N(C)C)C1)C(=O)N1CCC[C@H](N1)C(=O)OCC(C)(C)C2` (atropisomer, axis not shown) [Example A637], for which the pIC50 is < 5.00.

With `CO[C@@H](C)c1ncccc1-c1c2c3cc(ccc3n1CC(F)(F)F)N1CCO[C@@H](C[C@H](NC(=O)[C@H](C(C)C)N3CC[C@]4(CCN(C(=O)C#CC(C)(C)N(C)C)C4)C3=O)C(=O)N3CCC[C@H](N3)C(=O)OCC(C)(C)C2)C1` (atropisomer, axis not shown) [Example A642], the pIC50 is < 5.00.

Regarding `CCn1c(-c2cccnc2[C@H](C)OC)c2c3cc(ccc31)N1CCO[C@@H](C[C@H](NC(=O)[C@H](C(C)C)N(C)C(=O)C3(F)CCN(C(=O)C#CC(C)(C)N(C)C)CC3)C(=O)N3CCC[C@H](N3)C(=O)OCC(C)(C)C2)C1` (atropisomer, axis not shown) [Example A647, 1-(4-(dimethylamino)-4-methylpent-2-ynoyl)-N-((2S)-1-(((2^2S,6^3S,4S)-1^1-ethyl-1^2-(2-((S)-1-methoxyethyl)pyridin-3-yl)-10,10-dimethyl-5,7-dioxo-6^1,6^2,6^3,6^4,6^5,6^6-hexahydro-1^1H-8-oxa-2(4,2)-morpholina-1(5,3)-indola-6(1,3)-pyridazinacycloundecaphane-4-yl)amino)-3-methyl-1-oxobutan-2-yl)-4-fluoro-N-methylpiperidine-4-carboxamide], the negative logarithm of the IC50 (pIC50) is 5.00 to 6.00.

As to `C=CC(=O)N1CC[C@]2(C1)OCN([C@H](C(=O)N[C@H]1Cc3cccc(n3)-c3ccc4c(c3)c(c(-c3cccnc3[C@H](C)OC)n4CC)CC(C)(C)COC(=O)[C@@H]3CCCN(N3)C1=O)C(C)C)C2=O` (atropisomer, axis not shown) [Example A652], the pIC50 was 5.00 to 6.00.

Take `CCn1c(-c2cccnc2[C@H](C)OC)c2c3cc(ccc31)-c1cc(CF)cc(c1)C[C@H](NC(=O)[C@H](C(C)C)N(C)C(=O)[C@H]1CCN(C(=O)C#CC(C)(C)N(C)C)C1)C(=O)N1CCC[C@H](N1)C(=O)OCC(C)(C)C2` (atropisomer, axis not shown) [Example A658]: the pIC50 is 5.00 to 6.00.

Take `C=CC(=O)N1CC2(CCCN2C(=O)N(C)[C@H](C(=O)N[C@H]2Cc3nc(cs3)-c3ccc4c(c3)c(c(-c3cccnc3[C@H](C)OC)n4CC)CC(C)(C)COC(=O)[C@@H]3CCCN(N3)C2=O)C(C)C)C1` (atropisomer, axis not shown) [Example A667]: the pIC50 was 7.00 to 8.00.

In the case of `CCn1c(-c2cccnc2[C@H](C)OC)c2c3cc(ccc31)-c1cc(CF)cc(c1)C[C@H](NC(=O)[C@H](C(C)C)N1CC[C@]3(CCN(C(=O)C#CC(C)(C)N(C)C)C3)C1=O)C(=O)N1CCC[C@H](N1)C(=O)OCC(C)(C)C2` (atropisomer, axis not shown) [Example A673], the negative logarithm of the IC50 (pIC50) was 5.00 to 6.00.

For the molecule `CCn1c(-c2cccnc2[C@H](C)OC)c2c3cc(ccc31)-c1cccc(c1)C[C@H](NC(=O)[C@H](C(C)C)N(C)C(=O)C1(F)CCN(C(=O)/C=C/CN(C)C)CC1)C(=O)N1CCC[C@H](N1)C(=O)OCC(C)(C)C2` (atropisomer, axis not shown) [Example A685], the negative logarithm of the IC50 (pIC50) is 6.00 to 7.00.

As to `CO[C@@H](C)c1ncccc1-c1c2c3cc(ccc3n1CC(F)(F)F)-c1cccc(c1)C[C@H](NC(=O)[C@H](C(C)C)N1CC[C@]3(CCN(C(=O)C#CC(C)(C)N(C)C)C3)C1=O)C(=O)N1CCC[C@H](N1)C(=O)OCC(C)(C)C2` (atropisomer, axis not shown) [Example A689], the pIC50 was 5.00 to 6.00.

`CCn1c(-c2cccnc2[C@H](C)OC)c2c3cc(ccc31)-c1csc(n1)C[C@H](NC(=O)[C@H](C(C)C)N(C)C(=O)N(C)C1CN(C(=O)/C=C/C3CN(C)C3)C1)C(=O)N1CCC[C@H](N1)C(=O)OCC(C)(C)C2` (atropisomer, axis not shown) [Example A690]: the pIC50 was 6.00 to 7.00.

In the case of `CO[C@@H](C)c1ncccc1-c1c2c3cc(ccc3n1CC(F)(F)F)-c1cccc(c1)C[C@H](NC(=O)[C@@H](COC1CN(C(=O)C#CC3(C)OCCO3)C1)C(C)C)C(=O)N1CCC[C@H](N1)C(=O)OCC(C)(C)C2` (atropisomer, axis not shown) [Example A703], the pIC50 is < 5.00.

In the case of `C=CC(=O)N1CC(N(C)C(=O)N(C)[C@H](C(=O)N[C@H]2Cc3nc(cs3)-c3ccc4c(c3)c(c(-c3cccnc3[C@H](C)OC)n4CC(F)(F)F)CC(C)(C)COC(=O)[C@@H]3CCCN(N3)C2=O)C(C)C)C1` (atropisomer, axis not shown) [Example A711], the pIC50 is 6.00 to 7.00.

As for `CCn1c(-c2cccnc2[C@H](C)OC)c2c3cc(ccc31)-c1csc(n1)C[C@H](NC(=O)[C@@H](COC1CN(C(=O)C#CC(C)(C)N(C)C)C1)C(C)C)C(=O)N1CCC[C@H](N1)C(=O)OCC(C)(C)C2` (atropisomer, axis not shown) [Example A721], the pIC50 is < 5.00.

As for `CO[C@@H](C)c1ncccc1-c1c2c3cc(ccc3n1CC(F)(F)F)-c1cccc(c1)C[C@H](NC(=O)[C@H](C(C)C)N(C)C(=O)[C@H]1CCN(C(=O)C#CC(C)(C)N(C)C)C1)C(=O)N1CCC[C@H](N1)C(=O)OCC(C)(C)C2` (atropisomer, axis not shown) [Example A727], the pIC50 was 5.00 to 6.00.

Consider `CCn1c(-c2cccnc2)c2c3cc(ccc31)-c1csc(c1)C[C@H](NC(=O)[C@H](C(C)C)N(C)C(=O)[C@H]1CCN(C(=O)C#CCN3CCOCC3)C1)C(=O)N1CCC[C@H](N1)C(=O)OCC(C)(C)C2` [Example A205], for which the pIC50 was < 5.00.

In the case of `C=CC(=O)N1CC[C@H](C(=O)N(C)[C@H](C(=O)N[C@H]2C[C@H]3CN(CCO3)c3ccc4c(c3)c(c(-c3cccnc3COC)n4CC)CC(C)(C)COC(=O)[C@@H]3CCCN(N3)C2=O)C(C)C)C1` [Example A240], the pIC50 is < 5.00.

With `CCn1c(-c2cccnc2[C@H](C)OC)c2c3cc(ccc31)N1CCO[C@@](C)(C[C@H](NC(=O)[C@H](C(C)C)N(C)C(=O)C3(F)CCN(C(=O)C#CC(C)(C)N(C)C)CC3)C(=O)N3CCC[C@H](N3)C(=O)OCC(C)(C)C2)C1` [Example A550], the pIC50 is 5.00 to 6.00.

Consider `C=CC(=O)N1CCO[C@H]2CN(C(=O)N(C)[C@H](C(=O)N[C@H]3C[C@H]4CN(CCO4)c4ccc5c(c4)c(c(-c4cccnc4[C@H](C)OC)n5CC)CC(C)(C)COC(=O)[C@@H]4CCCN(N4)C3=O)C(C)C)C[C@H]21` [Example A562], for which the pIC50 is < 5.00.
